Reference: PubChem BioAssay AID1963445 (Molecular Pharmacology Branch, DTP, NCI, 2024)

Tested on: MCF7 complex spheroid growth, % test/control
Assay: Anticancer human tumor MCF7 cell line growth inhibition [Asc];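 further: spheroids exposed to compounds for 7 days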;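 on viability, T/C: 100% = DMSO vehicle control wells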
Settings: for IC50: curve of first compound; for viability, T/C: stronger effect = lower value
Outline: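 Concentration series start at each agent's clinical Cmax, or at 10 microM when none is established, and drop in half-log steps; agents are applied alone or together to complex spheroids built with HUVEC and hMSC.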

NC1CCC(NC2CC2c2ccccc2)CC1 (centres undefined) + CCN1C(C(=O)NC23CCC(C(=O)O)(CC2)CC3)C(c2cccc(Cl)c2F)C2(C(=O)Nc3cc(Cl)ccc32)C12CCCCC2
IC50 (second compound 0.00949 µM): > 100 nM | IC50 (second compound 0.03 µM): > 100 nM | IC50 (second compound 0.0949 µM): > 100 nM | IC50 (second compound 0.3 µM): < 0.316 nM | IC50 (second compound 0.949 µM): < 0.316 nM | IC50 (second compound 3 µM): < 0.316 nM | viability, T/C (second compound 0.00949 µM, first compound 0.000316 µM): 131% | viability, T/C (second compound 0.00949 µM, first compound 0.001 µM): 116% | viability, T/C (second compound 0.00949 µM, first compound 0.00316 µM): 131% | viability, T/C (second compound 0.00949 µM, first compound 0.01 µM): 154% | viability, T/C (second compound 0.00949 µM, first compound 0.0316 µM): 126% | viability, T/C (second compound 0.00949 µM, first compound 0.1 µM): 127% | viability, T/C (second compound 0.03 µM, first compound 0.000316 µM): 108% | viability, T/C (second compound 0.03 µM, first compound 0.001 µM): 113% | viability, T/C (second compound 0.03 µM, first compound 0.00316 µM): 123% | viability, T/C (second compound 0.03 µM, first compound 0.01 µM): 101% | viability, T/C (second compound 0.03 µM, first compound 0.0316 µM): 107% | viability, T/C (second compound 0.03 µM, first compound 0.1 µM): 74.8% | viability, T/C (second compound 0.0949 µM, first compound 0.000316 µM): 65.9% | viability, T/C (second compound 0.0949 µM, first compound 0.001 µM): 57.9% | viability, T/C (second compound 0.0949 µM, first compound 0.00316 µM): 43.3% | viability, T/C (second compound 0.0949 µM, first compound 0.01 µM): 51.7% | viability, T/C (second compound 0.0949 µM, first compound 0.0316 µM): 58.1% | viability, T/C (second compound 0.0949 µM, first compound 0.1 µM): 56.8% | viability, T/C (second compound 0.3 µM, first compound 0.000316 µM): 39.4% | viability, T/C (second compound 0.3 µM, first compound 0.001 µM): 38.8% | viability, T/C (second compound 0.3 µM, first compound 0.00316 µM): 43.8% | viability, T/C (second compound 0.3 µM, first compound 0.01 µM): 40% | viability, T/C (second compound 0.3 µM, first compound 0.0316 µM): 34.1% | viability, T/C (second compound 0.3 µM, first compound 0.1 µM): 43% | viability, T/C (second compound 0.949 µM, first compound 0.000316 µM): 30.3% | viability, T/C (second compound 0.949 µM, first compound 0.001 µM): 26.9% | viability, T/C (second compound 0.949 µM, first compound 0.00316 µM): 29.1% | viability, T/C (second compound 0.949 µM, first compound 0.01 µM): 25.7% | viability, T/C (second compound 0.949 µM, first compound 0.0316 µM): 29.1% | viability, T/C (second compound 0.949 µM, first compound 0.1 µM): 23.8% | viability, T/C (second compound 3 µM, first compound 0.000316 µM): 18.3% | viability, T/C (second compound 3 µM, first compound 0.001 µM): 18.6% | viability, T/C (second compound 3 µM, first compound 0.00316 µM): 19.9% | viability, T/C (second compound 3 µM, first compound 0.01 µM): 15.5% | viability, T/C (second compound 3 µM, first compound 0.0316 µM): 16.5% | viability, T/C (second compound 3 µM, first compound 0.1 µM): 19.6%

CCN1C(C(=O)NC23CCC(C(=O)O)(CC2)CC3)C(c2cccc(Cl)c2F)C2(C(=O)Nc3cc(Cl)ccc32)C12CCCCC2 (centres undefined) + CNC(C)C(=O)NC1CN(S(=O)(=O)c2cccc(S(=O)(=O)N3CCC4CCC(C(=O)NC(c5ccccc5)c5ccccc5)N4C(=O)C(NC(=O)C(C)NC)C3)c2)CCC2CCC(C(=O)NC(c3ccccc3)c3ccccc3)N2C1=O
IC50 (second compound 0.00316 µM): < 9.49 nM | IC50 (second compound 0.01 µM): < 9.49 nM | IC50 (second compound 0.0316 µM): < 9.49 nM | IC50 (second compound 0.1 µM): < 9.49 nM | IC50 (second compound 0.316 µM): < 9.49 nM | IC50 (second compound 1 µM): < 9.49 nM | viability, T/C (second compound 0.00316 µM, first compound 0.00949 µM): 40.9% | viability, T/C (second compound 0.00316 µM, first compound 0.03 µM): 14.3% | viability, T/C (second compound 0.00316 µM, first compound 0.0949 µM): 10.8% | viability, T/C (second compound 0.00316 µM, first compound 0.3 µM): 11% | viability, T/C (second compound 0.00316 µM, first compound 0.949 µM): 8.86% | viability, T/C (second compound 0.00316 µM, first compound 3 µM): 5.04% | viability, T/C (second compound 0.01 µM, first compound 0.00949 µM): 11.4% | viability, T/C (second compound 0.01 µM, first compound 0.03 µM): 8.24% | viability, T/C (second compound 0.01 µM, first compound 0.0949 µM): 8.54% | viability, T/C (second compound 0.01 µM, first compound 0.3 µM): 5.55% | viability, T/C (second compound 0.01 µM, first compound 0.949 µM): 5.82% | viability, T/C (second compound 0.01 µM, first compound 3 µM): 5.04% | viability, T/C (second compound 0.0316 µM, first compound 0.00949 µM): 11.9% | viability, T/C (second compound 0.0316 µM, first compound 0.03 µM): 8.85% | viability, T/C (second compound 0.0316 µM, first compound 0.0949 µM): 5.62% | viability, T/C (second compound 0.0316 µM, first compound 0.3 µM): 5.69% | viability, T/C (second compound 0.0316 µM, first compound 0.949 µM): 4.2% | viability, T/C (second compound 0.0316 µM, first compound 3 µM): 5.94% | viability, T/C (second compound 0.1 µM, first compound 0.00949 µM): 12% | viability, T/C (second compound 0.1 µM, first compound 0.03 µM): 10.7% | viability, T/C (second compound 0.1 µM, first compound 0.0949 µM): 6.73% | viability, T/C (second compound 0.1 µM, first compound 0.3 µM): 6.23% | viability, T/C (second compound 0.1 µM, first compound 0.949 µM): 4.67% | viability, T/C (second compound 0.1 µM, first compound 3 µM): 5.57% | viability, T/C (second compound 0.316 µM, first compound 0.00949 µM): 12.5% | viability, T/C (second compound 0.316 µM, first compound 0.03 µM): 10.7% | viability, T/C (second compound 0.316 µM, first compound 0.0949 µM): 7.04% | viability, T/C (second compound 0.316 µM, first compound 0.3 µM): 5.56% | viability, T/C (second compound 0.316 µM, first compound 0.949 µM): 5.97% | viability, T/C (second compound 0.316 µM, first compound 3 µM): 6.29% | viability, T/C (second compound 1 µM, first compound 0.00949 µM): 11.2% | viability, T/C (second compound 1 µM, first compound 0.03 µM): 12.5% | viability, T/C (second compound 1 µM, first compound 0.0949 µM): 9.54% | viability, T/C (second compound 1 µM, first compound 0.3 µM): 5.59% | viability, T/C (second compound 1 µM, first compound 0.949 µM): 4.74% | viability, T/C (second compound 1 µM, first compound 3 µM): 6.71%
